Data set [1] is described as follows: Selectivity index, ratio of LC50 for human U937 cells to EC50 for intracellular amastigote stage of Leishmania panamensis MHOM/CO/87/UA140epir GFP infected in human U937 cells. As to conditions: for selectivity ratio: read-out: Selectivity Index. It is filed as toxicity, cell-based, U-937.
Data set [2] can be described thus: Selectivity index, ratio of LC50 for human U937 cells to EC50 for axenic amastigote stage of Leishmania panamensis MHOM/CO/87/UA140epir GFP. As to conditions: for selectivity ratio: U937 cells, axenic amastigotes of Leishmania panamensis, read-out: Selectivity Index. In kind it is toxicity, cell-based, U-937.
For data set [3], the system named is Leishmania panamensis. Description: Leishmanicidal activity against axenic amastigote stage of Leishmania panamensis MHOM/CO/87/UA140epir GFP assessed as parasite viability after 72 hr by MTT assay. In kind it is functional, organism-based. In general terms: Tetrazolium assays rely on reduction of a dye to a coloured formazan, in cell work by metabolically active cells.

Data set [4] relates to Leishmania panamensis. The experiment in a line: Leishmanicidal activity against intracellular amastigote stage of Leishmania panamensis MHOM/CO/87/UA140epir GFP infected in human U937 cells assessed as parasite viability after 72 hr by flow cytometric analysis. In kind it is functional, organism-based, U-937. For orientation: Flow cytometry measures light scatter and fluorescence of single cells or particles in a stream.

The nature of data set [5]: (§1) Cytotoxicity against Homo sapiens (human) U937 cells assessed as cell viability after 72 hr by MTT assay. As to conditions: U937 cells, read-out: LC50. It is filed as cell-based, U-937.
The next data set has as its system U-937. Described as §1. To be noted: u-937, 72 h. In kind it is cell-based.
Where [6] appears, read: Leishmania panamensis, MHOM/CO/87/UA140epir GFP, 72 h, read-out: EC50.
Setting [7] is: Leishmania panamensis, MHOM/CO/87/UA140epir GFP, U-937, 72 h, read-out: EC50.

Converted amounts (≈) assume the structure as drawn.

Broadly, the EC50 is the concentration at which the effect is half-maximal. Turning to `Cc1ccc2cccc(OCCCOc3cc(Cl)ccc3Oc3ccc(Cl)cc3Cl)c2n1`, the selectivity ratio in data set [1] is > 31.2; in data set [2] it was > 8.5. For the same molecule, the figures for the EC50 with Leishmania panamensis [3] (setting [6]) and in the data set on Leishmania panamensis [4] (setting [7]) were 23.6 µg/mL (≈ 48.3 µM) and 6.4 µg/mL (≈ 13.1 µM), respectively. The CC50 at 72 h in data set [5] was > 200 µg/mL.

`Cc1ccc2cccc(OCCCCCCCCCOc3cc(Cl)ccc3Oc3ccc(Cl)cc3Cl)c2n1`: the selectivity ratio in data set [2] was > 2. Moreover, in the data set on Leishmania panamensis [3] (setting [6]), the EC50 is > 100 µg/mL. Also, the CC50 at 72 h in data set [5] is > 200 µg/mL.

`C=CCc1ccc(OCCCCCCCCCOc2cccc3ccc(C)nc23)c(OC)c1`: in data set [2], the selectivity ratio was determined as 0.7. In addition, in the data set on Leishmania panamensis [3] (setting [6]), the EC50 worked out at 21.1 µg/mL (≈ 47.1 µM). Besides, the CC50 at 72 h in data set [5] worked out at 14.1 µg/mL (≈ 31.5 µM).

`C=CCc1ccc(OCCCCCCCCCCCCOc2cccc3ccc(C)nc23)c(OC)c1`: the selectivity ratio in data set [1] worked out at 4.7. For the same molecule, the EC50 in the data set on Leishmania panamensis [3] (setting [6]) is > 100 µg/mL; with Leishmania panamensis [4] (setting [7]), 17.4 µg/mL (≈ 35.5 µM). For the same molecule, the CC50 at 72 h in data set [5] was found to be 82.9 µg/mL (≈ 169 µM).

Turning to `C=CCc1ccc(OCCCCOc2cccc3ccc(C)nc23)c(OC)c1`, the selectivity ratio was < 1 in data set [1] and 0.5 in data set [2]. For the same molecule, the concentration giving a half-maximal response (EC50) in the data set on Leishmania panamensis [3] (setting [6]) is 38.9 µg/mL (≈ 103 µM); in the data set on Leishmania panamensis [4] (setting [7]), > 31.3 µg/mL. The CC50 at 72 h in data set [5] came to 31.3 µg/mL (≈ 82.9 µM).

As to `C[C@@H]1[C@H](O)[C@@H](C)/C=C/C=C/C=C/C=C/C=C/C=C/C=C/[C@H](O[C@@H]2O[C@H](C)[C@@H](O)[C@H](N)[C@@H]2O)C[C@@H]2O[C@](O)(C[C@@H](O)C[C@@H](O)[C@H](O)CC[C@@H](O)C[C@@H](O)CC(=O)O[C@H]1C)C[C@H](O)[C@H]2C(=O)O` [AMPHOTERICIN B], the selectivity ratio turned out to be 970 in data set [1] and 776 in data set [2]. The EC50 with Leishmania panamensis [3] (setting [6]) stood at 0.05 µg/mL (≈ 0.0541 µM); with Leishmania panamensis [4] (setting [7]), 0.04 µg/mL (≈ 0.0433 µM). Also, the CC50 at 72 h in data set [5] worked out at 38.8 µg/mL (≈ 42 µM).

As for `C=CCc1ccc(OCCCOc2cccc3ccc(C)nc23)c(OC)c1`, in data set [2], the selectivity ratio was determined as 1. Further, in the data set on Leishmania panamensis [3] (setting [6]), the EC50 was 6.9 µg/mL (≈ 19 µM). For the same molecule, the CC50 at 72 h in data set [5] was determined as 6.8 µg/mL (≈ 18.7 µM).

As for `Cc1ccc2cccc(O)c2n1` [8-HYDROXY QUINALDINE], the selectivity ratio in data set [2] worked out at 2.9. Moreover, the concentration for a half-maximal effect (EC50) in the data set on Leishmania panamensis [3] (setting [6]) stood at 2.6 µg/mL (≈ 16.3 µM). For the same molecule, the CC50 at 72 h in data set [5] turned out to be 7.6 µg/mL (≈ 47.7 µM).

With `Cc1ccc2cccc(OCCCCCCCCOc3cc(Cl)ccc3Oc3ccc(Cl)cc3Cl)c2n1`, the selectivity ratio in data set [2] is > 2. In addition, the EC50 with Leishmania panamensis [3] (setting [6]) is > 100 µg/mL. The CC50 at 72 h in data set [5] was > 200 µg/mL.

In the case of `Cc1ccc2cccc(OCCCCOc3cc(Cl)ccc3Oc3ccc(Cl)cc3Cl)c2n1`, the results for the selectivity ratio in data set [1] and in data set [2] were > 2 and > 20.6, respectively. For the same molecule, the figures for the EC50 in the data set with Leishmania panamensis [3] (setting [6]) and in the data set on Leishmania panamensis [4] (setting [7]) were 9.7 µg/mL (≈ 19.3 µM) and > 100 µg/mL, respectively. Also, the CC50 at 72 h in data set [5] was > 200 µg/mL.

With `Oc1cc(Cl)ccc1Oc1ccc(Cl)cc1Cl` [TRICLOSAN], the selectivity ratio in data set [2] turned out to be 0.4. Further, in the data set on Leishmania panamensis [3] (setting [6]), the EC50 is 11.3 µg/mL (≈ 39 µM). Besides, the CC50 at 72 h in data set [5] came to 4.8 µg/mL (≈ 16.6 µM).

For orientation: LC50 means the concentration lethal to half of the exposed cells or organisms. For the molecule MEGLUMINE ANTIMONATE, the “Selectivity Index” value is recorded as > 147.05 in data set [1] (u-937) and > 1 in data set [2] (u-937). In addition, the EC50 with Leishmania panamensis [3] is > 1000 µg/mL; with Leishmania panamensis [4] (u-937), 6.8 µg/mL. In the data set on U-937, the LC50 was > 1000 µg/mL.

Take `Cc1ccc2cccc(OCCCCCCCCCCCCOc3cc(Cl)ccc3Oc3ccc(Cl)cc3Cl)c2n1`: the selectivity ratio in data set [2] is > 2. Further, in the data set on Leishmania panamensis [3] (setting [6]), the EC50 is > 100 µg/mL. Further, the CC50 at 72 h in data set [5] was > 200 µg/mL.

In the case of `C=CCc1ccc(OCCCCCCCCOc2cccc3ccc(C)nc23)c(OC)c1`, the figures for the selectivity ratio in data set [1] and in data set [2] were 3.8 and 0.5, respectively. For the same molecule, the concentration for a half-maximal effect (EC50) in the data set on Leishmania panamensis [3] (setting [6]) was 29.6 µg/mL (≈ 68.3 µM); with Leishmania panamensis [4] (setting [7]) it was 3.9 µg/mL (≈ 8.99 µM). Besides, in data set [5], the CC50 at 72 h was 14.7 µg/mL (≈ 33.9 µM).

In the case of `Cc1ccc2cccc(OCCCCCOc3cc(Cl)ccc3Oc3ccc(Cl)cc3Cl)c2n1`, the results for the selectivity ratio in data set [1] and in data set [2] were 24.6 and 14.4, respectively. In addition, the EC50 worked out at 4.1 µg/mL (≈ 7.93 µM) in the data set with Leishmania panamensis [3] (setting [6]) and 2.4 µg/mL (≈ 4.64 µM) with Leishmania panamensis [4] (setting [7]). The CC50 at 72 h in data set [5] came out at 59.2 µg/mL (≈ 115 µM).

Take `C=CCc1ccc(OCCCCCOc2cccc3ccc(C)nc23)c(OC)c1`: the selectivity ratio in data set [2] amounted to 1. Moreover, in the data set with Leishmania panamensis [3] (setting [6]), the EC50 was found to be 9.5 µg/mL (≈ 24.3 µM). Moreover, the CC50 at 72 h in data set [5] turned out to be 10.5 µg/mL (≈ 26.8 µM).

Take `C=CCc1ccc(O)c(OC)c1` [EUGENOL]: in data set [2], the selectivity ratio amounted to 0.7. Also, the EC50 in the data set on Leishmania panamensis [3] (setting [6]) came out at 21.4 µg/mL (≈ 130 µM). In data set [5], the CC50 at 72 h worked out at 14.2 µg/mL (≈ 86.5 µM).

These data come from ChEMBL document CHEMBL3046057, “Synthesis and leishmanicidal activity of quinolinetriclosan and quinolineeugenol hybrids” (Med Chem Res, 2012).
